Paper PMC11694061 (Cancer Research, 2024)

What was measured:
[1] = system: MIA PaCa-2 cells; assay: Proliferation, MIA PaCa-2 (2D); assay type: cell-based; settings: Homo sapiens, MIA PaCa-2, 72 hours
Experimental: (§1) Cells were inoculated onto 96-well plates and treated with compounds in serial dilutions for 3 or 5 days. […] The cell viability of primary patient samples was tested using the CellTiter-Glo Luminescent Assay kit (G7573, Promega) according to the manufacturer’s instructions. […] The optical density (OD) values were obtained using a SPARK microplate reader (Tecan). IC50 was calculated using GraphPad Prism 8.0.2 (nonlinear regression analysis with four parameters). Drug synergy was evaluated with combination index (CI) values using CalcuSyn Demo Version 2.0 software. CI > 1 indicates antagonism, CI < 1 indicates synergy, and CI = 1 indicates additivity.

[2] = system: MIA PaCa-2/R cells; assay: Proliferation, MIA PaCa-2/R (2D); assay type: cell-based; settings: Homo sapiens, MIA PaCa-2/R (AMG510-resistant), 72 hours
Experimental: as §1

[3] = system: 293T cells (KRAS-WT); assay: 3D growth inhibition, 293T; assay type: cell-based; settings: Homo sapiens, HEK-293T, 120 h, read-out: IC50 (3D culture), 293T
Experimental: (§2) Cells were inoculated onto 96-well plates and treated with compounds in serial dilutions for 3 or 5 days. Cell viability was assessed using sulforhodamine B (230162, Sigma-Aldrich) assay and methyl thiazolyl tetrazolium (M5655, Sigma-Aldrich) assay for adherent and suspended cells, respectively, in accordance with previously described methods ([48]). The cell viability of primary patient samples was tested using the CellTiter-Glo Luminescent Assay kit (G7573, Promega) according to the manufacturer’s instructions. Three-dimensional cultivation was conducted in 96-well ultralow attachment plates (7007, Corning). The optical density (OD) values were obtained using a SPARK microplate reader (Tecan). IC50 was calculated using GraphPad Prism 8.0.2 (nonlinear regression analysis with four parameters). Drug synergy was evaluated with combination index (CI) values using CalcuSyn Demo Version 2.0 software. CI > 1 indicates antagonism, CI < 1 indicates synergy, and CI = 1 indicates additivity.

[4] = system: BxPC-3 cells (KRAS-WT); assay: 3D growth inhibition, BxPC-3; assay type: cell-based; settings: Homo sapiens, BXPC-3, 120 h, read-out: IC50 (3D culture), BxPC-3
Experimental: as §2

[5] = system: NCI-H358 cells (KRAS^G12C); assay: 3D growth inhibition, NCI-H358; assay type: cell-based; settings: Homo sapiens, NCI-H358, 120 h, read-out: IC50 (3D culture), NCI-H358
Experimental: as §2

[6] = system: GP2d cells (KRAS^G12D); assay: 3D growth inhibition, GP2d; assay type: cell-based; settings: Homo sapiens, 120 h, read-out: IC50 (3D culture), GP2d
Experimental: as §2

[7] = system: HPAF-II cells (KRAS^G12D); assay: 3D growth inhibition, HPAF-II; assay type: cell-based; settings: Homo sapiens, 120 h, read-out: IC50 (3D culture), HPAF-II
Experimental: as §2

[8] = system: SW620 cells (G12V); assay: 3D growth inhibition, SW620; assay type: cell-based; settings: Homo sapiens, SW-620, 120 h, read-out: IC50 (3D culture), SW620
Experimental: as §2

[9] = system: K562 cells; assay: Proliferation, K562; assay type: cell-based, human; settings: Homo sapiens, K562, read-out: IC50 (cell proliferation inhibition in K562 cells)
Experimental: as §1

[10] = system: MIA PaCa-2 xenografts (KRAS^G12C); assay: MIA PaCa-2 xenograft; assay type: in vivo, mouse; settings: BI-3406 50 mg/kg twice daily, end of 24-day period
Experimental: (§3) Animal experiments were carried out following the guidelines of the Institutional Animal Care and Use Committee of Shanghai Institute of Materia Medica, Chinese Academy of Sciences, and Lingang Laboratory. […] All mice were raised till the tumor volumes reached approximately 100 mm^3 and were randomly assigned to either the vehicle or treated groups (n = 5/group). […] Body weights and tumor sizes of mice were recorded every 3 days. Tumor volumes were calculated as follows: ½ × length × width^2. On the final day of the experiment, the mice were euthanized and tumor samples were prepared for Western blot analysis.

[11] = system: K562 xenografts; assay: K562 xenograft; assay type: in vivo; settings: imatinib (100 mg/kg) monotherapy, orally daily
Experimental: as §3

C=CC(=O)N1CCN(c2nc(=O)n(-c3c(C)ccnc3C(C)C)c3nc(-c4c(O)cccc4F)c(F)cc23)[C@@H](C)C1 [AMG510, sotorasib]
IC50 [1]: 25 nM
IC50 [2]: 590000 nM

COc1cc2nc(C)nc(N[C@H](C)c3cc(N)cc(C(F)(F)F)c3)c2cc1O[C@H]1CCOC1 [BI-3406]
IC50 [3]: > 10000 nM
IC50 [4]: 692 nM
IC50 [5]: 11 nM
IC50 [6]: 4.1 nM
IC50 [7]: 61.9 nM
IC50 [8]: 18 nM
IC50 [9]: 199 ± 32 nM
tumor growth inhibition [10]: 62.0%

Cc1ccc(NC(=O)c2ccc(CN3CCN(C)CC3)cc2)cc1Nc1nccc(-c2cccnc2)n1 [imatinib]
TGI [11]: 50.9%
